Results: patent publication US9238014B2, “Pharmaceutical composition for treating alcohol dependency” (priority 2009, dated 2016)
Counter-ions that a name gives are not always drawn.

Test system: male mouse of the C57BL/6J line
Assay: Alcohol/water preference (alcohol consumption) after forced alcoholization in mice
Format: in vivo
Parameters: key to Alcohol/Water preference index (Pref.), Mean / Alcohol/Water preference index (Pref), Mean: Pref = (Alcohol−Water)/(Alcohol+Water); >0 alcohol, <0 water preference
Conditions: for Alcohol/Water preference index (Pref), Mean: Example 2, Table D, n = 9; for effect on alcohol consumption (in words): same model and same doses, administered separately or in combination as stated; for Alcohol/Water preference index (Pref.), Mean: Experiment A, single agent 1 mg/kg injected before session, n = 6; for effect on alcoholic preference (in words): on this model and at the doses used, vs saline control, significant if p≦0.05
Description: All the products used for the treatments are dissolved in saline (0.9% NaCl) so that the injection volume is 10 ml/kg of body weight.
The animals are kept in their cage throughout the experiment. They are subjected to forced alcoholization, with 10% alcohol as the only drink, for 15 days. They are then returned to normal conditions with water to drink.
Different groups of mice are constituted depending on the treatments: controls (injected with saline), prazosin 1 mg/kg, cyproheptadine 1 mg/kg, prazosin 1 mg/kg+cyproheptadine 1 mg/kg, prazosin 0.5 mg/kg+cyproheptadine 1 mg/kg,
The tests begin 24 hours after forced alcoholization is stopped. They proceed during the first two hours of darkness (period of activity), during which the animals have access to a feeder with water and a feeder with alcohol. The amounts of water and of alcohol consumed are measured after said two hours.
Several sessions of measuring the consumption of water and of alcohol are carried out. For the first 2 sessions (S1-S2) the animals receive an injection of saline; they receive the treatments (prazosin, cyproheptadine, prazosin+cyproheptadine) or saline (for the control group) in the next sessions (T1, T2, T3). The treatments are carried out 10 minutes before each session.
The Alcohol/Water preference index (Pref.) is calculated as follows: Pref.=(Consumption Alcohol−Water)/(Consumption Alcohol+Water)
0<Pref.≦1: Preference for alcohol
Pref.=0: No preference alcohol vs water
−1≦Pref.<0: Preference for water (i.e. aversion to alcohol)
During the sessions for measuring alcohol consumption, the animals receive the treatments 30 minutes before said measurement.
The results are expressed in mean value and standard error of mean (SEM). The preference indices (Pref) of the treated groups are compared with that of the control group by the bilateral Student t-test for independent groups. The values shown (p vs Con) are the probabilities for the difference between treated group and control group being due to chance. A difference is regarded as statistically significant if p≦0.05.
The cyproheptadine/alfuzosin, cyproheptadine/terazosin and cyproheptadine/tamsulosin combinations were tested in experimental conditions identical to those described in example 1 above and using the same model.

[1] = alpha1 antagonist alone 0.5 mg/kg, treatment session T1
[2] = alpha1 antagonist alone 0.5 mg/kg, treatment session T2
[3] = alpha1 antagonist alone 0.5 mg/kg, treatment session T3

Row | SMILES | Alcohol/Water preference index (Pref), Mean [1] | Alcohol/Water preference index (Pref), Mean [2] | Alcohol/Water preference index (Pref), Mean [3] | effect on alcohol consumption (in words) | Alcohol/Water preference index (Pref), Mean (cyproheptadine alone 1 mg/kg, treatment session T1) | Alcohol/Water preference index (Pref), Mean (cyproheptadine alone 1 mg/kg, treatment session T2) | Alcohol/Water preference index (Pref), Mean (cyproheptadine alone 1 mg/kg, treatment session T3) | Alcohol/Water preference index (Pref.), Mean (treatment session T1) | Alcohol/Water preference index (Pref.), Mean (treatment session T2) | Alcohol/Water preference index (Pref.), Mean (treatment session T3) | effect on alcoholic preference (in words) | effect on alcohol consumption (in words) (hydrochloride) | effect on alcohol consumption (in words) (listed as cyproheptadine, hydrochloride)
1 | COc1cc2nc(N(C)CCCNC(=O)C3CCCO3)nc(N)c2cc1OC (centres unmarked) [Alfuzosin, N-[3-[(4-amino-6,7-dimethoxy-quinazolin-2-yl)-methyl-amino]propyl]tetrahydrofuran-2-carboxamide] | 0.59 | 0.62 | 0.63 | do not have an effect |  |  |  |  |  |  |  |  | 
2 | CN1CCC(=C2c3ccccc3C=Cc3ccccc32)CC1 [Cyproheptadine, 4-(5H-dibenzo[a,d]cyclohepten-5-ylidene)-1-methylpiperidine hydrochloride] |  |  |  |  | 0.91 | 0.76 | 0.81 | 0.92 | 0.82 | 0.82 | do not have a significant effect | do not have an effect | do not have any effect
3 | COc1cc2nc(N3CCN(C(=O)c4ccco4)CC3)nc(N)c2cc1OC [Prazosin, 2-[4-(2-furoyl)piperazin-1-yl]-6,7-dimethoxyquinazolin-4-amine] |  |  |  | do not have any effect |  |  |  | 0.78 | 0.57 | 0.72 | do not have a significant effect |  | 
4 | CCOc1ccccc1OCCN[C@H](C)Cc1ccc(OC)c(S(N)(=O)=O)c1 [Tamsulosin, (R)-5-(2-(2-(2-ethoxyphenoxy)ethylamino)propyl)-2-methoxybenzenesulfonamide] | 0.68 | 0.79 | 0.77 | do not have an effect |  |  |  |  |  |  |  |  | 
5 | COc1cc2nc(N3CCN(C(=O)C4CCCO4)CC3)nc(N)c2cc1OC (centres unmarked) [Terazosin, 6,7-dimethoxy-2-[4-(tetrahydrofuran-2-ylcarbonyl)piperazin-1-yl]quinazolin-4-amine] | 0.64 | 0.75 | 0.72 | do not have an effect |  |  |  |  |  |  |  |  | 
